As usually defined, the melting point is the temperature of the solid-liquid transition. `COc1cc(C)c(C(=O)c2c(C(F)(F)F)ccnc2Cl)c(OC)c1OC` displayed a melting point of 59 to 62 °C. `Cc1nn(CC(=O)COCc2ccccc2)c(-c2ccc(F)cc2)c1-c1ccc2c(c1)NC(=O)CO2` had a melting point of 154 to 155 °C. To `O=C(O)CNC(=O)c1c(O)n(C2CCCC2)c(=O)n(C2CCCCC2)c1=O` belongs 222 to 224 °C.

For the compound `O=C1CC2Cc3c(Cl)cccc3C2N1` (stereo not drawn), the melting point fell in the range of 186 to 187 °C. For `CCOC(=O)c1ccc(-c2cc3c(NCc4cccc(Cl)c4)ncnc3[nH]2)cc1` the value was 305 to 306 °C; for `NC(=O)c1sc(Nc2ccc(Cl)cc2)c2c1CCc1cnoc1-2`, 224 to 225 °C. To `CC(C)CCc1c(-c2ccc(S(C)(=O)=O)c(F)c2)cnn(-c2ccc(F)c(F)c2)c1=O` belongs 119 to 121 °C; to `CCn1c(=O)c2c(nc(C=Cc3cc(OC)ccc3S(N)(=O)=O)n2C)n(CC)c1=O`, 236 to 237 °C; to `CCC[C@H](NC(=O)Cc1cc(C)sc1C)C(=O)Nc1ncc(-c2ccccc2COCC)s1`, 84 °C. In turn, `CCOc1cc2cc(CO)c(CO)c(-c3ccnc(Cl)c3)c2cc1OCC` had a melting point of 148 to 150 °C. For `CC(C)(C)CC(NC(=O)c1ccc(Cl)cc1)NC(=N[N+](=O)[O-])Nc1cccnc1` (stereo not drawn) the value was 184 to 185 °C. Consider `C=CCC(N)(c1ccccc1)C(O)c1ccccc1` (stereo not drawn), for which the melting point lay in the range of 85 to 86 °C. As for `CCOCn1cnc2c1c(=O)n(C)c(=O)n2C`, the melting point fell in the range of 110 to 112 °C.

`Cc1cc(O)c(C(C)(C)C)cc1C=O` had a melting point of 168 to 170 °C.

Turning to `Cc1cccc(-c2[nH]c(C(C)C)nc2-c2cccc(-c3cccc(S(C)(=O)=O)c3)c2)n1`, the melting point fell in the range of 97 to 100 °C.

Consider `CCc1nn2c(-c3ccc(OC)cc3OC)cccc2c1N(CC)CCF`, for which the melting point lay within 51.2 to 53.6 °C. For `COc1nc(C)c(C)nc1NC(=O)N1CCN(c2cccc(Br)c2)CC1` the value was 158 to 160 °C; for `CC[C@H](C)C(OCc1ccccc1F)[C@H]1[C@H]([N+](=O)[O-])[C@@H](c2cccs2)N[C@@H]1C(=O)NCCC(=O)O` (stereo partly drawn), 94 to 96 °C. On to `CSC1CCC2C3CCC4=CC(=O)C=CC4(C)C3C(=O)CC12C` (stereo not drawn), for which the melting point lay within 180 to 183 °C. For `COC(=O)c1ccc(S(C)(=O)=O)c(C(=O)NCC(C)CO)c1Cl` (stereo not drawn) the value was 70 to 72 °C. To `CCOC(=O)Cc1sc(Sc2cc(C(=O)OC)c3ccccc3n2)nc1C` belongs 128 to 131 °C; to `O=C(Nc1ccc(Cc2nnn[nH]2)cc1)C(F)(F)C(F)(F)F`, 183 to 185 °C. Consider `Cc1ccccc1-c1nc(=S)n(Cc2ccccc2)[nH]1`, for which the melting point is 150 to 153 °C. For `CCOc1cc(CBr)ccc1C(=O)O` the value was 64 to 66 °C; for `CN(C)CCOc1cc2c(Nc3ccc(Cl)cc3Cl)c(C#N)cnc2cn1`, 75 to 79 °C. To `Cc1nc(-n2ccc(OCc3ccccc3)cc2=O)[nH]c1C(=O)NCc1cccnc1` belongs 203 to 204 °C; to `Cn1c(=O)[nH]c(=O)n(-c2ccc(F)cc2Cl)c1=O`, 225 to 228 °C; to `COc1ccc(Nc2ncc(Br)c(Nc3ccc(OC)c(OC)c3OC)n2)c(OC)c1OC`, 186 to 191 °C. As to `Cc1noc(NS(=O)(=O)c2ccc(-c3ccc(C(F)(F)F)cc3)s2)c1Br`, the melting point turned out to be 132 °C. `CN(C)Cc1c(-c2ccccc2)[nH]c2nccnc12`: the melting point was in the range of 191 to 192 °C. As to `CO[C@]1(c2cnc(SC)s2)CCO[C@@H]1C` (racemic), the melting point lay within 51 to 52 °C. To `CN1CCC(Oc2cnccn2)(c2ccccc2)CC1` belongs 115 to 116 °C. For `CCN(CC)c1nc(O)cc(OC)n1` the value was 165 to 166 °C.

The compound `CCOC(=O)C1=CC(=O)N=N1` came in with a melting point of 235 to 238 °C.

As for `O=C(CC(=S)S)c1ccc(Oc2ccccc2)cc1`, the melting point is 78 °C.

Turning to `OCC1OC(n2c(Cl)c(-c3ccsc3)c3cc(Cl)c(Cl)cc32)CC1O` (stereo not drawn), the melting point lay in the range of 144 to 145 °C.

Consider `CNC(=O)N/N=C1/C(=O)N(CCN(C(C)C)C(C)C)c2ccccc21`, for which the melting point lay within 175 to 177 °C. `CCOC(=O)c1cn(C2CC2)c2c(F)c(N3CCNC(C)C3)c(F)c(N)c2c1=O` (stereo not drawn) had a melting point of 132 to 134 °C. Consider `CC(c1oc2ccccc2c(=O)c1-c1cccc(F)c1)n1nc(-c2cccc(C(=O)N3CCOCC3)c2)c2c(N)ncnc21` (stereo not drawn), for which the melting point fell in the range of 104 to 106 °C. To `O=S(=O)(Oc1ccc(-c2cc3ccc(OS(=O)(=O)c4ccccc4)cc3s2)cc1)c1ccccc1` belongs 138 to 139 °C. To `Cc1c(-c2ccccc2)noc1-c1ccccc1C(=O)O` belongs 159 to 161 °C. For `O=c1[nH]c2c(c(=O)n1CCCN1CCN(c3ccccc3OCC(F)(F)F)CC1)CCCC2` the value was 148 to 150 °C; for `CN1C(=O)N(c2ccccc2Br)Cc2cnc(Nc3ccc4c(c3)OCC(CO)O4)nc21` (stereo not drawn), 156 to 158 °C. For `N#Cc1ccc(NCC(=O)N2CCC(Cc3ccc(F)cc3)CC2)cc1`, the melting point fell in the range of 204 to 206 °C. For `Cc1ccc(C(=O)NC/C=C/c2ccccc2)cc1` the value was 134 °C. In the case of `O=[N+]([O-])c1cccc(-c2ccncc2)c1`, the melting point fell in the range of 109 to 110 °C. To `COC(=O)[C@@H](N)Cc1cc(I)c(Oc2ccc(O)cc2)c(I)c1` belongs 173 °C. Regarding `COC(=O)c1ccc(OC(=O)CCCCCCCCC(=O)Oc2ccc(C(=O)OC)cc2)cc1`, the melting point turned out to be 110 °C. For `COc1cc(N2CCN(c3c(C)c(C)c4c(c3C)CC(C)(C)O4)CC2)ccc1Cl` the value was 168 to 171 °C. To `Cc1oc(-c2ccccc2)nc1CCOc1ccc(CON=C(CCC(=O)O)c2ccccc2)cc1` belongs 106 to 107 °C. The compound `CNC(=O)CCCCCc1cccc2cncn12` gave a melting point of 118 to 122 °C. Compound `CS(=O)(=O)NC1CCCOc2ccc([N+](=O)[O-])cc21` (stereo not drawn) yielded a melting point of 96 to 98 °C. Take `CC1=CC2(C=C3CCC4C5CCC(=O)C5(C)CCC4C13C)OCCO2` (stereo not drawn): the melting point was determined as 159 °C. `CC1=C(/C=C/S(=O)(=O)NC(C)C)[C@H](c2cccc([N+](=O)[O-])c2)C(C(=O)O[C@H](C)c2ccccc2)=C(C)N1` gave a melting point of 198 to 201 °C. To `CC(C)Oc1ccc2ccc(N)nc2n1` belongs 170 °C; to `COc1ccc(-c2ccc(C(=O)Nc3ccc4cc(CN5CCCC5)cnc4c3F)c(F)c2)cc1`, 182 to 183 °C. To `CN1CCN(c2ccc(Nc3nc(N)c(C(=O)c4c(F)cccc4C(F)(F)F)s3)cc2)CC1` belongs 155 to 158 °C. For `CC1(CF)C=C(Br)c2cc([N+](=O)[O-])ccc2O1` (stereo not drawn) the value was 116 to 117 °C; for `Cc1cc(Oc2ccc([N+](=O)[O-])c(C)c2)n[nH]1`, 114 to 117 °C. Compound `CC=C(c1ccc(OC)cc1)c1ccc(OC)cc1` gave a melting point of 99 to 100 °C. `O=C(NCc1cccc(Cl)c1)c1sc2ccc(Cl)cc2c1O`: the melting point lay in the range of 184 to 186 °C. To `N#CC1=C(c2ccccc2)Oc2ccccc2O1` belongs 85 to 86 °C; to `O=C(O)CCCc1cc2nc(Cl)ccc2n1S(=O)(=O)c1cccc2nccnc12`, 74 °C. For `CCC(=O)On1c(=O)c(=O)[nH]c2cc(C(F)(F)F)c(C#N)cc21` the value was 227 °C; for `CCCCCCCCNC(=O)/C=C\SC(=O)c1ccc(F)cc1`, 87 to 91 °C; for `COc1cc(N(C)C)c(Cl)cc1C(=O)NC1CCN(Cc2ccccc2)C1` (stereo not drawn), 85 to 86 °C.

`COc1ccc(-c2cc(=O)n(C3CCCC3)nc2-c2ccc(OC)cc2)cc1` came in with a melting point of 141 to 142 °C. For `COc1cc(CNC=O)ccc1O` the value was 83.5 °C. For `COc1ccccc1Oc1c(NS(=O)(=O)c2ccc(C(C)(C)C)cc2)nc(CO)nc1OCCOc1ncc(Br)cn1`, the melting point is 161 to 162 °C. For `OC1(C#Cc2cccc(Cl)c2)CCNC1` (stereo not drawn) the value was 153 to 160 °C. For the compound `C=C(C)COc1ccc(F)cc1CN(CC)c1ccc(C(=O)O)nn1`, the melting point lay in the range of 121 to 122 °C. In turn, `CC1(C)CC(=O)c2c(-c3ccccn3)cn(-c3ccccn3)c2C1` displayed a melting point of 171 to 174 °C. On to `CC(C)c1cccc(C(C)C)c1NC(=O)NC(c1ccccc1)c1ccccc1`, for which the melting point fell in the range of 245 to 246 °C. Take `Cn1ncc2[nH]c3ccc(Cc4ccccc4Cl)cc3c(=O)c21`: the melting point was determined as 278 °C. On to `CC(C)N1C(=O)C2Cc3c(nc(C(=O)c4ccccc4)n3Cc3ccccc3)CN2C1=O` (stereo not drawn), for which the melting point fell in the range of 215 to 217 °C. For `C[C@@H]1Cc2cc([N+](=O)[O-])sc2[C@H](C)N1CCNC(=O)c1ccc([N+](=O)[O-])cc1` (relative stereo) the value was 155 to 156 °C. To `CSc1noc(-c2ccc(O)cc2)c1C#N` belongs 194 to 196 °C. For `Cc1c(-c2cncnc2)ssc1=S` the value was 184 °C; for `Cn1c(C=O)c(-c2ccccc2)c2ccccc2c1=O`, 181 to 182 °C; for `CCCCCCCCCCCCc1ccc(S(=O)(=O)Nc2nnc(C)s2)cc1`, 149 to 150 °C. As for `CCN1C(=O)CC[C@@H]2c3ccc(Cl)cc3CC[C@H]21`, the melting point is 108 to 110 °C. Regarding `CN1CC=C(c2cccc3ccc(N(Cc4ccccc4)Cc4ccccc4)cc23)CC1`, the melting point is 124 to 126 °C. To `C=CCCCn1c(=O)sc2c(=O)[nH]c(N)nc21` belongs 240 to 243 °C. Regarding `O=C(/C=C/c1ccc2ccccc2c1)Nc1cc(Cl)c(Cl)cc1S(=O)(=O)O`, the melting point was 229 °C. To `CCOCN1C(C)=C(C(=O)O)C(c2cccc([N+](=O)[O-])c2)C(C(=O)OC)=C1C` (single isomer, unassigned; (-)) belongs 134 to 135 °C; to `Cc1oc(-c2ccccc2)nc1COc1ccc(C=CC=O)cc1C(F)(F)F`, 138 to 139 °C.

Take `CCCc1c(O)c(C(C)=O)cc2c(=O)cc(C(=O)OC)n(CC)c12`: the melting point was in the range of 121 to 123 °C. On to `O=C(O)C1CSC(c2ccccc2-c2ccccc2)N1` (mixture of isomers), for which the melting point came to 190 °C.
